Results published in ChEMBL document CHEMBL1201862, “PubChem BioAssay data set” (2004).
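Step 1: Grow cells in 96-well plates. Step 2: Expose to compound for 48 hours at 5 concentrations. Step 3: Interpolate endpoints linearly; if unreached, use highest concentration. The concentration for 50% growth inhibition is given as GI50.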 Active and inactive are the calls of the source. Rule as the data show it: active = GI50 up to about 1.1 µM and inactive = higher.

What was measured:
Test in all cases: DTP human tumour cell line panel, 48 h
SK-MEL-5 = tested on: SK-MEL-5
SF-539 = tested on: SF-539
HOP-92 = tested on: HOP-92
SK-MEL-28 = tested on: SK-MEL-28
NCI/ADR-RES = tested on: NCI/ADR-RES
OVCAR-4 = tested on: OVCAR-4
HT-29 = tested on: HT-29
OVCAR-3 = tested on: OVCAR-3
LOX IMVI = tested on: LOX IMVI
HCC 2998 = tested on: HCC 2998
UACC-257 = tested on: UACC-257
SN12C = tested on: SN12C
NCI-H226 = tested on: NCI-H226
MOLT-4 = tested on: MOLT-4
OVCAR-8 = tested on: OVCAR-8
SR = tested on: SR
MCF7 = tested on: MCF7
U-251 = tested on: U-251
SK-OV-3 = tested on: SK-OV-3
RXF 393 = tested on: RXF 393
TK-10 = tested on: TK-10
SF-268 = tested on: SF-268
SNB-19 = tested on: SNB-19
MDA-N = tested on: MDA-N
786-0 = tested on: 786-0
UACC-62 = tested on: UACC-62
MDA-MB-231 = tested on: MDA-MB-231
M14 = tested on: M14
CAKI-1 = tested on: CAKI-1
HCT-15 = tested on: HCT-15
NCI-H522 = tested on: NCI-H522
EKVX = tested on: EKVX
MDA-MB-435 = tested on: MDA-MB-435
OVCAR-5 = tested on: OVCAR-5
HCT-116 = tested on: HCT-116
DU-145 = tested on: DU-145
KM12 = tested on: KM12
Malme-3M = tested on: Malme-3M
SK-MEL-2 = tested on: SK-MEL-2
COLO 205 = tested on: COLO 205
PC-3 = tested on: PC-3
NCI-H23 = tested on: NCI-H23
Hs-578T = tested on: Hs-578T
NCI-H460 = tested on: NCI-H460
BT-549 = tested on: BT-549
A498 = tested on: A498
CCRF-CEM = tested on: CCRF-CEM
T47D = tested on: T47D
A549 = tested on: A549
SF-295 = tested on: SF-295
SW-620 = tested on: SW-620
IGROV-1 = tested on: IGROV-1
HOP-62 = tested on: HOP-62
SNB-75 = tested on: SNB-75
ACHN = tested on: ACHN
UO-31 = tested on: UO-31
RPMI-8226 = tested on: RPMI-8226
HL-60 = tested on: HL-60
K562 = tested on: K562

O=C(Nc1ccc(Cl)c(Cl)c1)C(=O)C(C1OC(=O)c2ccccc21)[N+](=O)[O-] (centres undefined)
GI50 (SK-MEL-5): > 100 µM (inactive) | GI50 (SF-539): > 100 µM (inactive) | GI50 (HOP-92): 81.7 µM (inactive) | GI50 (SK-MEL-28): > 100 µM (inactive) | GI50 (NCI/ADR-RES): > 100 µM (inactive) | GI50 (OVCAR-4): > 100 µM (inactive) | GI50 (HT-29): > 100 µM (inactive) | GI50 (OVCAR-3): > 100 µM (inactive) | GI50 (LOX IMVI): > 100 µM (inactive) | GI50 (HCC 2998): > 100 µM (inactive) | GI50 (UACC-257): > 100 µM (inactive) | GI50 (SN12C): > 100 µM (inactive) | GI50 (NCI-H226): > 100 µM (inactive) | GI50 (MOLT-4): > 100 µM (inactive) | GI50 (OVCAR-8): > 100 µM (inactive) | GI50 (SR): > 100 µM (inactive) | GI50 (MCF7): > 100 µM (inactive) | GI50 (U-251): > 100 µM (inactive) | GI50 (SK-OV-3): > 100 µM (inactive) | GI50 (RXF 393): 95.1 µM (inactive) | GI50 (TK-10): > 100 µM (inactive) | GI50 (SF-268): > 100 µM (inactive) | GI50 (SNB-19): > 100 µM (inactive) | GI50 (MDA-N): > 100 µM (inactive) | GI50 (786-0): > 100 µM (inactive) | GI50 (UACC-62): > 100 µM (inactive) | GI50 (MDA-MB-231): > 100 µM (inactive) | GI50 (M14): > 100 µM (inactive) | GI50 (CAKI-1): > 100 µM (inactive) | GI50 (HCT-15): > 100 µM | GI50 (NCI-H522): > 100 µM (inactive) | GI50 (EKVX): > 100 µM (inactive) | GI50 (MDA-MB-435): > 100 µM (inactive) | GI50 (OVCAR-5): > 100 µM (inactive) | GI50 (HCT-116): > 100 µM (inactive) | GI50 (DU-145): > 100 µM (inactive) | GI50 (KM12): > 100 µM (inactive) | GI50 (Malme-3M): > 100 µM (inactive) | GI50 (SK-MEL-2): > 100 µM (inactive) | GI50 (COLO 205): > 100 µM (inactive) | GI50 (PC-3): > 100 µM (inactive) | GI50 (NCI-H23): > 100 µM (inactive) | GI50 (Hs-578T): > 100 µM (inactive) | GI50 (NCI-H460): > 100 µM (inactive) | GI50 (BT-549): > 100 µM (inactive) | GI50 (A498): > 100 µM (inactive) | GI50 (CCRF-CEM): > 100 µM (inactive) | GI50 (T47D): > 100 µM (inactive) | GI50 (A549): > 100 µM (inactive) | GI50 (SF-295): > 100 µM (inactive) | GI50 (SW-620): > 100 µM (inactive) | GI50 (IGROV-1): > 100 µM (inactive) | GI50 (HOP-62): > 100 µM (inactive) | GI50 (SNB-75): > 100 µM (inactive) | GI50 (ACHN): > 100 µM (inactive) | GI50 (UO-31): > 100 µM (inactive)

Cc1ccc(Nc2nc(=O)[nH]c(=O)[nH]2)cc1N
GI50 (SK-MEL-5): > 100 µM (inactive) | GI50 (SF-539): > 100 µM (inactive) | GI50 (HOP-92): > 100 µM (inactive) | GI50 (SK-MEL-28): 32.7 µM (inactive) | GI50 (NCI/ADR-RES): > 100 µM (inactive) | GI50 (OVCAR-4): > 100 µM (inactive) | GI50 (HT-29): > 100 µM (inactive) | GI50 (OVCAR-3): > 100 µM (inactive) | GI50 (LOX IMVI): > 100 µM (inactive) | GI50 (HCC 2998): > 100 µM (inactive) | GI50 (UACC-257): > 100 µM (inactive) | GI50 (SN12C): > 100 µM (inactive) | GI50 (NCI-H226): > 100 µM (inactive) | GI50 (OVCAR-8): > 100 µM (inactive) | GI50 (SR): > 100 µM (inactive) | GI50 (MCF7): > 100 µM (inactive) | GI50 (U-251): 27.5 µM (inactive) | GI50 (SK-OV-3): > 100 µM (inactive) | GI50 (TK-10): > 100 µM (inactive) | GI50 (SF-268): > 100 µM (inactive) | GI50 (SNB-19): > 100 µM (inactive) | GI50 (MDA-N): > 100 µM (inactive) | GI50 (786-0): > 100 µM (inactive) | GI50 (UACC-62): > 100 µM (inactive) | GI50 (MDA-MB-231): > 100 µM (inactive) | GI50 (M14): > 100 µM (inactive) | GI50 (CAKI-1): > 100 µM (inactive) | GI50 (HCT-15): > 100 µM | GI50 (NCI-H522): > 100 µM (inactive) | GI50 (EKVX): > 100 µM (inactive) | GI50 (MDA-MB-435): 26.5 µM (inactive) | GI50 (OVCAR-5): > 100 µM (inactive) | GI50 (HCT-116): > 100 µM (inactive) | GI50 (DU-145): > 100 µM (inactive) | GI50 (KM12): > 100 µM (inactive) | GI50 (Malme-3M): > 100 µM (inactive) | GI50 (SK-MEL-2): > 100 µM (inactive) | GI50 (COLO 205): > 100 µM (inactive) | GI50 (PC-3): > 100 µM (inactive) | GI50 (NCI-H23): > 100 µM (inactive) | GI50 (Hs-578T): > 100 µM (inactive) | GI50 (NCI-H460): > 100 µM (inactive) | GI50 (BT-549): > 100 µM (inactive) | GI50 (A498): > 100 µM (inactive) | GI50 (CCRF-CEM): > 100 µM (inactive) | GI50 (T47D): > 100 µM (inactive) | GI50 (A549): > 100 µM (inactive) | GI50 (SF-295): > 100 µM (inactive) | GI50 (SW-620): 30.8 µM (inactive) | GI50 (IGROV-1): > 100 µM (inactive) | GI50 (HOP-62): > 100 µM (inactive) | GI50 (RPMI-8226): > 100 µM (inactive) | GI50 (SNB-75): > 100 µM (inactive) | GI50 (ACHN): > 100 µM (inactive) | GI50 (HL-60): > 100 µM (inactive)

CC(Br)C(=O)Nc1ccc(C(=O)O)c(O)c1 (centres undefined)
GI50 (SK-MEL-5): 62.5 µM (inactive) | GI50 (SF-539): 38.6 µM (inactive) | GI50 (HOP-92): 65.6 µM (inactive) | GI50 (SK-MEL-28): 47.4 µM (inactive) | GI50 (NCI/ADR-RES): 49.5 µM (inactive) | GI50 (OVCAR-4): 45.4 µM (inactive) | GI50 (HT-29): 62.4 µM (inactive) | GI50 (OVCAR-3): 29.2 µM (inactive) | GI50 (LOX IMVI): 34.5 µM (inactive) | GI50 (UACC-257): 42.4 µM (inactive) | GI50 (SN12C): 24.7 µM (inactive) | GI50 (NCI-H226): 93.5 µM (inactive) | GI50 (MOLT-4): 36.1 µM (inactive) | GI50 (OVCAR-8): 52.8 µM (inactive) | GI50 (SR): 32.9 µM (inactive) | GI50 (MCF7): 83.4 µM (inactive) | GI50 (U-251): 23.2 µM (inactive) | GI50 (SK-OV-3): 38.5 µM (inactive) | GI50 (RXF 393): 53.6 µM (inactive) | GI50 (TK-10): 52.4 µM (inactive) | GI50 (SF-268): 36.3 µM (inactive) | GI50 (SNB-19): 37.2 µM (inactive) | GI50 (MDA-N): 34.6 µM (inactive) | GI50 (786-0): 37.6 µM (inactive) | GI50 (UACC-62): 33.6 µM (inactive) | GI50 (MDA-MB-231): 68.2 µM (inactive) | GI50 (M14): 33.4 µM (inactive) | GI50 (CAKI-1): > 100 µM (inactive) | GI50 (HCT-15): > 100 µM | GI50 (NCI-H522): 20 µM (inactive) | GI50 (EKVX): > 100 µM (inactive) | GI50 (MDA-MB-435): 34.4 µM (inactive) | GI50 (OVCAR-5): > 100 µM (inactive) | GI50 (HCT-116): 50.7 µM (inactive) | GI50 (DU-145): > 100 µM (inactive) | GI50 (KM12): 70.8 µM (inactive) | GI50 (Malme-3M): 20.7 µM (inactive) | GI50 (K562): 49.8 µM (inactive) | GI50 (SK-MEL-2): 32.4 µM (inactive) | GI50 (COLO 205): > 100 µM (inactive) | GI50 (PC-3): 34 µM (inactive) | GI50 (NCI-H23): 27.4 µM (inactive) | GI50 (Hs-578T): 33.4 µM (inactive) | GI50 (NCI-H460): > 100 µM (inactive) | GI50 (BT-549): 37.2 µM (inactive) | GI50 (A498): > 100 µM (inactive) | GI50 (CCRF-CEM): 15.8 µM (inactive) | GI50 (T47D): > 100 µM (inactive) | GI50 (A549): > 100 µM (inactive) | GI50 (SF-295): > 100 µM (inactive) | GI50 (SW-620): 60.8 µM (inactive) | GI50 (IGROV-1): > 100 µM (inactive) | GI50 (HOP-62): 34.8 µM (inactive) | GI50 (RPMI-8226): > 100 µM (inactive) | GI50 (SNB-75): 43.5 µM (inactive) | GI50 (ACHN): > 100 µM (inactive) | GI50 (UO-31): > 100 µM (inactive) | GI50 (HL-60): 26.6 µM (inactive)
